# From publication PMC9844538 (Nature chemical biology, 2022)
# Starred links: 1 amine or outer side, 2 acyl side, 3 side chain; linkers in the order of their positions; H or OH if unused. Positions of bridges follow the written chain, without caps; N, C: chain ends. Non-standard residues stand in square brackets, D forms with d. Residues, ends and D or L forms follow the SMILES beside them. *: point of attachment. βAsp = O=C(O)[C@H](CC(=O)[*:2])N[*:1]; His(π-Me) = Cn1cncc1C[C@H](N)C(=O)O; For = O=C*
# Experiments:
# E. coli topo IV = E. coli topo IV (Escherichia coli, UniProt P0AFI2+P20083); assay: Supercoil relaxation assay; format: biochemical; settings: 100 μM evybactin, 0–20 nM enzyme
# E. coli WO153 = assay: Macromolecule incorporation assay; format: cell-based, Escherichia coli; settings: 8x MIC of evybactin
# [1] = system: M. tuberculosis H37Rv mc^26020; assay: Time-dependent killing; format: cell-based, Mycobacterium tuberculosis
# mouse = assay: Toxicity in a mouse; format: in vivo; settings: intraperitoneally, 100 mg kg^−1, survival observed for 24 hours
# E. coli gyrase = E. coli gyrase (Escherichia coli, UniProt P0AES4+P0AES6); assay: Supercoiling assay; format: biochemical; settings: 100 μM evybactin, 0–20 nM enzyme, strong cleavage visible at 5 nM enzyme
# [2] = system: commensal bacteria, including Lactobacillus sp. and Bacteroides sp.; assay: Activity against commensal bacteria; format: cell-based
# [3] = target: T1, M. tuberculosis gyrase (MtbGyrase) (Mycobacterium tuberculosis, UniProt P9WG45+P9WG47); assay: Supercoiling assay; format: biochemical
# M. tuberculosis = assay: Cell elongation, microscopy; format: cell-based, Mycobacterium tuberculosis
# [4] = target: T1, M. tuberculosis gyrase (MtbGyrase); format: biochemical; settings: no ATP
# [5] = system: M. tuberculosis H37Rv mc^26020; assay: Vitamin B12 competition assay; format: cell-based, Mycobacterium tuberculosis; settings: 1,000-fold molar excess of vitamin B12, 7 days, 37 °C
# MtbGyrase = MtbGyrase (Mycobacterium tuberculosis, UniProt P9WG45+P9WG47); format: biochemical
# [6] = system: Mycobacterium tuberculosis H37Rv mc^26020; assay: MIC, broth microdilution; format: cell-based; settings: bleomycin susceptibility, value before the MIC shift
# T1 sequence (P9WG45 whole entry, looked up): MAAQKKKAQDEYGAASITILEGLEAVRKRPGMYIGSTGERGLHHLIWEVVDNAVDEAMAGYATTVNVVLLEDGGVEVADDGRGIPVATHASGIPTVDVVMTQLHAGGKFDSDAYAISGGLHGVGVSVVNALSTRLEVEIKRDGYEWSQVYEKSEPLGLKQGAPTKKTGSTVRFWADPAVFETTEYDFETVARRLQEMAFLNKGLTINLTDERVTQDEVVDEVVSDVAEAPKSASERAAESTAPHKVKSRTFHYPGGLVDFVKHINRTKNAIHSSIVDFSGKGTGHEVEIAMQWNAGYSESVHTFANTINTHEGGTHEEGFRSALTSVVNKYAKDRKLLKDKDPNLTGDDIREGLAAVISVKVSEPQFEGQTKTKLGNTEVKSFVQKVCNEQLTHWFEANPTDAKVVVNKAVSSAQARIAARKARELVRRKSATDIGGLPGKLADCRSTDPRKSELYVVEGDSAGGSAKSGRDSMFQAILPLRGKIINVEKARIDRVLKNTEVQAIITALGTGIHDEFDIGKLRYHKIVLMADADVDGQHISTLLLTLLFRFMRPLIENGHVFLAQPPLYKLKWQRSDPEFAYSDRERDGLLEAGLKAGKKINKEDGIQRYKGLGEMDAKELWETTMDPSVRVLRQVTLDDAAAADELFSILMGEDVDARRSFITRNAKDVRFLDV
# T1 sequence (P9WG47 whole entry, looked up): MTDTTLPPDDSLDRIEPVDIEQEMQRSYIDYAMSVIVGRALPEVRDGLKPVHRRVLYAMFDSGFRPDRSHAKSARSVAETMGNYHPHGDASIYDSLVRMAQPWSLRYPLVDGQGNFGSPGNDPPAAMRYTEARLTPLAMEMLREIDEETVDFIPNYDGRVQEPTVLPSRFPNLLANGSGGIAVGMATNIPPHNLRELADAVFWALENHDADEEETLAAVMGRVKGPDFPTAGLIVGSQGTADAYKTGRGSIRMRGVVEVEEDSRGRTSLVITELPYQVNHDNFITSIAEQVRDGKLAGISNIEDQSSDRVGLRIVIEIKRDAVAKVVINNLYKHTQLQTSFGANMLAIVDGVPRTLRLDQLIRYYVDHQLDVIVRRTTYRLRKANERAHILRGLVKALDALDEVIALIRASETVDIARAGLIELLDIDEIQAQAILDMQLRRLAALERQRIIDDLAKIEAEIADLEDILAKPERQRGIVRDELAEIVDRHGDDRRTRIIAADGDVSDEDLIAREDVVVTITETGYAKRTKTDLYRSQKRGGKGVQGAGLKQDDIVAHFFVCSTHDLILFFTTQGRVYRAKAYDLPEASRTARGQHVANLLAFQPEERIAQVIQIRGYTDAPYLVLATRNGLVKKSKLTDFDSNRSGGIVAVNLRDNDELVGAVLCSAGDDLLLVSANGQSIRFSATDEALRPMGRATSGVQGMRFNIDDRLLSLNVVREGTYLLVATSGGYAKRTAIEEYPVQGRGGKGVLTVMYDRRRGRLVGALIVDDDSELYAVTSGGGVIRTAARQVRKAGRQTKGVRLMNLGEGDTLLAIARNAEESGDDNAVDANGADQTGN
# E. coli gyrase, sequence (P0AES4 whole entry, one chain of several): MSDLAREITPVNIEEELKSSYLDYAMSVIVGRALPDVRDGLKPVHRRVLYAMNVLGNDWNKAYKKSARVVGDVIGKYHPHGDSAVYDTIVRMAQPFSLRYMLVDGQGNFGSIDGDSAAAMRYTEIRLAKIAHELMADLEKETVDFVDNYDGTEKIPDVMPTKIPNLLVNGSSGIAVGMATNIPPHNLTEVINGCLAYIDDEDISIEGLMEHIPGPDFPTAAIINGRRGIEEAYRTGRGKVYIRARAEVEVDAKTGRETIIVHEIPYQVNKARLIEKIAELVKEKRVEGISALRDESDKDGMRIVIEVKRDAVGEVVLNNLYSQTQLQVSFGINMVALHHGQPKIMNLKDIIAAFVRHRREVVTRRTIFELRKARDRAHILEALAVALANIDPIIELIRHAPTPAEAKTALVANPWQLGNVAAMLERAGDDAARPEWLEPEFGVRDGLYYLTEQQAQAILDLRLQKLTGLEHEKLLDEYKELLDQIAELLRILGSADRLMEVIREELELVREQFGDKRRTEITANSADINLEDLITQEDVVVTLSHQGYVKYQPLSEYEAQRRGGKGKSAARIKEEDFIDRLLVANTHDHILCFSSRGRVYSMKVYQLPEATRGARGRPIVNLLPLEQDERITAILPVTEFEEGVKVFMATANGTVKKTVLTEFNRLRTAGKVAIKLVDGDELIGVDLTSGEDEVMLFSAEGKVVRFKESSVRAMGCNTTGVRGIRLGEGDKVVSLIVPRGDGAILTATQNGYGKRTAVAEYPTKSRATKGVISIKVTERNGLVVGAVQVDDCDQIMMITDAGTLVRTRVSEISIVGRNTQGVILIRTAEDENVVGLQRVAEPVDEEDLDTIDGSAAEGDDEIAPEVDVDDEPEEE
# E. coli topo IV, sequence (P0AFI2 whole entry): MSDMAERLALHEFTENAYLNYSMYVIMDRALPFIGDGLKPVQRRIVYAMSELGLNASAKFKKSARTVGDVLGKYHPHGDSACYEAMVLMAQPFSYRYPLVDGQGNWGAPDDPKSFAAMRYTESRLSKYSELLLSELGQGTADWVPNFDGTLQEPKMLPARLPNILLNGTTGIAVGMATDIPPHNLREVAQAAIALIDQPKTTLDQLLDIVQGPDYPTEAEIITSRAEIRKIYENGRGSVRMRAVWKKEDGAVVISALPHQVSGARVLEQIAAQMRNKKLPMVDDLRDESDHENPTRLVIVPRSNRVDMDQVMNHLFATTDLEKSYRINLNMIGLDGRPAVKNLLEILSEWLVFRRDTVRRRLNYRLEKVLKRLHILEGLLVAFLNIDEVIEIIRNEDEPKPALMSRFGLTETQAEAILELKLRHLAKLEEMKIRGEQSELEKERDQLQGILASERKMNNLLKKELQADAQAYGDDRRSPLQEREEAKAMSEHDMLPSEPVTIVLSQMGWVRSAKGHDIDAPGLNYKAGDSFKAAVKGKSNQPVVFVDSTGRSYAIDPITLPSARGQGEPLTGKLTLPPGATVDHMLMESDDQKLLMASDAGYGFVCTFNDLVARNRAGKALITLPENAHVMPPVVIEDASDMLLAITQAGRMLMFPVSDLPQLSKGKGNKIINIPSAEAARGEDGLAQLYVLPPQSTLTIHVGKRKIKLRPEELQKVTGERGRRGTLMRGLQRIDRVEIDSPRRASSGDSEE
# E. coli topo IV, sequence (P20083 whole entry): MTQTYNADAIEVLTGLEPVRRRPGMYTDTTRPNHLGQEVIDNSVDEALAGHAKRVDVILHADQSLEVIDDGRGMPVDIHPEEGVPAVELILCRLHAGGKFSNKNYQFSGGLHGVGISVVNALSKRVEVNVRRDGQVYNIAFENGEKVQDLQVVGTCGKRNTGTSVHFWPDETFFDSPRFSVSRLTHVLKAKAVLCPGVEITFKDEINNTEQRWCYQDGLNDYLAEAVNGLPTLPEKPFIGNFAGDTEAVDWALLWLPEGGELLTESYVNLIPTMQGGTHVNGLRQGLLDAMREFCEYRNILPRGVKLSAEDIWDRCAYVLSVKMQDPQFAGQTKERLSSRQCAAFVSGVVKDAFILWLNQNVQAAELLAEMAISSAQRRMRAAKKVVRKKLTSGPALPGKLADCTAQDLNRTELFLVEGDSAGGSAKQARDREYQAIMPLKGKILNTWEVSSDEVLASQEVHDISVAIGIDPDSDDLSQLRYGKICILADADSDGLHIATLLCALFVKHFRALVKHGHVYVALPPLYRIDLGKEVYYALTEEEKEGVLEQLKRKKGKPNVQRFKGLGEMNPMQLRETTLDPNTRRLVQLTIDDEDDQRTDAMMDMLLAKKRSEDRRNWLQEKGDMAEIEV
compound,measurement,setting,value
C[C@@H](O)[C@H](NC(=O)[C@H](Cc1c[nH]c2ccccc12)NC=O)C(=O)N[C@H](CCCNC(=N)N)C(=O)N[C@@H]1C(=O)N[C@@H](Cc2cncn2C)C(=O)N[C@H](C(=O)O)CC(=O)N[C@H](CO)C(=O)N[C@@H](Cc2ccccc2)C(=O)NCC(=O)N[C@H](CCCNC(=N)N)C(=O)N[C@@H](CO)C(=O)N[C@H](C(=O)O)CC(=O)O[C@@H]1C [evybactin] (For-WT[dR]T[His(π-Me)][βAsp][dS]FG[dR]S[βAsp]; ester 4-C),DNA cleavage,E. coli topo IV,stimulated DNA cleavage
same,DNA synthesis (^14C-thymidine incorporation),E. coli WO153,inhibits DNA synthesis
same,"RNA, protein and fatty acid synthesis (label incorporation)",E. coli WO153,less of an effect
same,killing ability,[1],highly bactericidal
same,"toxicity, survival",mouse,no indications of toxicity
same,toxicity against human cells,FaDu,no toxicity
same,DNA cleavage,E. coli gyrase,stimulated DNA cleavage
same,toxicity against human cells,HepG2,no toxicity
same,activity against commensal bacteria,[2],no activity
same,supercoiling activity and DNA cleavage,[3],inhibited the supercoiling activity
same,cell length versus non-treated cells,M. tuberculosis,approximately two times longer
same,toxicity against human cells,HEK293,no toxicity
same,solubility,Solubility in water,> 40 mg/mL
same,DNA cleavage in the absence of ATP,[4],little to no cleavage
same,effect of vitamin B12 on evybactin susceptibility,[5],no change in the susceptibility
COc1c(N2C[C@@H]3CCCN[C@@H]3C2)c(F)cc2c(=O)c(C(=O)O)cn(C3CC3)c12 [moxifloxacin],ATPase rate (Vmax),MtbGyrase,0.4 ± 0.1 molecules of ATP per second per enzyme
bleomycin,MIC (before shift),[6],0.06 µg/mL
